Measurements reported in patent US10711278B2, “Genetically altered alfalfa producing clovamide and/or related hydroxycinnamoyl amides” (The United States of America, as represented by the …, priority 2015, dated 2020).

Tests used:
[1] = cited from earlier work
[2] = In-vitro hydroxycinnamoyl-CoA transferase activity of soluble E. coli extracts expressing HDT1 or HDT2, HPLC of products; type: biochemical, Trifolium pratense; conditions: expressed in E. coli; p-coumaroyl-, caffeoyl-, and feruloyl-CoA
Source text: Plasmids containing full-length red clover HDT coding regions (both HDT1 (SEQ ID NO: 1) and HDT2 (SEQ ID NO: 3)) were used as templates in PCR reactions with primers designed to introduce an […] restriction site at the start codons (ms886—SEQ ID NO: 13) and an XhoI site immediately following the stop codon (ms887—SEQ ID NO: 14) of each open reading frame. The resulting PCR products were digested with NcoI and XhoI and inserted into pET28a (Novagen, Madison, Wis.) digested with NcoI and XhoI. The insert is operably linked to the IPTG-inducible promoter contained in pET28. Each plasmid was sequenced to confirm correct sequence was generated.
Each pET28 derivative containing HDT coding regions (pET28-HDT1 and pET28-HDT2) or pET28 (as a negative control) were transformed, individually, into BL21(DE3)RIL Codon Plus E. coli (Agilent Technologies, Santa Clara, Calif.). […] The soluble fraction was isolated, divided into single use aliquots, flash frozen in liquid nitrogen and stored at −80° C. until ready to use. […]
The supernatant is analyzed for reaction products by HPLC. […]

## hydroxycinnamoyl-CoA:malate hydroxycinnamoyl transferase [HMT]
[1]; HCT2 gene product produced in E. coli
  HDT activity: does not have HDT activity
[1]; in-vitro
  preference for p-coumaroyl-CoA and feruloyl-CoA donor substrates over caffeoyl-CoA: five- to tenfold

B1: hydroxycinnamoyl-CoA:L-DOPA/tyrosine hydroxycinnamoyl transferase 1 (protein)
chain: MVTIIASHTVIPEEPTPQGPFWLSDMDQVVRIRDVPTLYIYKTPKKNQENKNIVETFKNSLSKILVHYYPIAGRLCYIEGGRLELNLNAKGAILVEAETEKTMNDYGDFSHFDTIKELVPMIDYNQPIEEIPNFVVQLTNFKNNEGFAIGVAFLHPLSDGLGAIKFINSWAKIARGETLEANELPFLDRKLLKFSHTPLEPRFEHLELKPLPLILGRKDASEEKEKKTSATLLKLSSEQVDKLKKKANEEDVLGIQKKEYSRPYSKFEVISAHIWRCASKARELEDNQESVIRFIADVKNRMIPPLPKNYFGNALTQTATKGYIGEITSKPLGYVAQKIREATELINDEYIRSQIDVVRSFEHLDDARKMFIGEKARYFGNPNFNLTSWLSMPVYEADFGWGKPNYFGLADVSPHDRAVILLSPDDDGSVLVSFHFQIAHMELFNKYFYEEI
modifications: Trifolium pratense
[2]
  transfer of trans-hydroxycinnamoyl moiety from CoA derivative to L-DOPA or L-tyrosine: capable of transferring a trans-hydroxycinnamoyl moiety

B2: hydroxycinnamoyl-CoA:L-DOPA/tyrosine hydroxycinnamoyl transferase 2 (protein)
chain: MVTIIASHTVIPEEPTPQGPFWLSDMDQVVRIRDVPTLYIYKTPKKNQENKNIVETFKNSLSKILVHYYPIAGRLCYIEGGRLELNLNAKGAILVEAETEKTMNDYGDFSHFDTIKELVPMIDYNQPIEEIPNFVVQLTKFKNNEGFAIGVAFLHPLSDGLGAIKFINSWAKIARGETLEANELPFLDRKLLKFSHTPLEPRFEHLELKPLPLILGRKDASEEKEKKTSATLLKLSSEQVDKLKKKANEEDVLGVQKKEYSRPYSKFEVISAHIWRCASKARELKDNQESVIRFIADVKNRMIPPLPKNYFGNALTQTATKGYIGEITSKPLGYVAQKIREATELVNDEYIRSQIDVVRSFEHLDDARKMFIGEKARYFGNPNFNLTSWLSMPVYEADFGWGKPNYFGLADVSPHDRAVILLSPDDDGSVLVSFHLQIAHMELFNKYFYEEI
modifications: Trifolium pratense
[2]
  transfer of trans-hydroxycinnamoyl moiety from CoA derivative to L-DOPA or L-tyrosine: capable of transferring a trans-hydroxycinnamoyl moiety
